Results: publication PMC3199867, “Targeting surface nucleolin with multivalent HB-19 and related Nucant pseudopeptides results in distinct inhibitory mechanisms depending on the malignant tumor cell type” (BMC Cancer, 2011)

What was measured:
[1] = system: SW480; test: Cell growth / proliferation (cell number); assay type: cell-based, human; conditions: for Number of cells / % inhibition: counted seven days after seeding; for Number of cells: control 1,500,000; for % Growth inhibition After 3 days: SW480, N6 or N7 20 μM, viable cell number vs untreated control, mean of at least 2 independent experiments
Method: (§1) Human breast (MDA-MB-231, MDA-MB-435 [37]), prostate (LNCaP, from American Type Culture Collection, ATCC, Rockville, MD), and cervical (HeLa) epithelial cancer cells were grown in DMEM-glutamax medium (Gibco Invitrogen, Cergy-Pontoise, France) containing GlutaMAX™, 4.5 g/l glucose and supplemented with 10% heat-inactivated (56°C for 30 min) fetal bovine serum (FBS; Hyclone, Thermo Fisher Scientific, Inc). Human SW480 cells are derived from a grade 3-4 colon carcinoma, while the highly metastatic counterpart SW620 is established from the lymph node of a person. Both SW480 and SW620 cells (obtained from Francis Raul, IRCAD) are highly tumorigenic in nude mice. They were cultured in D-MEM, 10% FCS. The murine melanoma TIII cell line was obtained from Armelle Prévost-Blondel. Murine T29 lymphoma cells, obtained from Philippe Kastner (CNRS, Strasbourg), have been established from Ik^L/L tumors from mice carrying a hypomorphic mutation (Ik^L/L) in the Ikaros gene encoding a transcription factor that regulates lymphocyte differentiation, and acts also as a tumor suppressor in T lymphocytes. The T29 cells were cultured in RPMI medium containing 25 mM Hepes pH 7.6, 1 mM sodium pyruvate, and 10% FCS. Human leukemia cell lines, Jurkat (acute T cell leukemia), HuT 78 (cutaneous T lymphocyte), RAJI (Burkitt lymphoma), and HL60 (promyelocytic leukemia) were cultured in RPMI-1640 medium (Gibco) containing GlutaMAX™, and supplemented with 10% heat-inactivated FBS as described before. The wild-type Chinese hamster ovary cell line (CHO K1) was purchased from American Type Culture Collection (ATCC; Rockville, MD). The CHO LRP1-null cell line (CHO-13-5-1) was kindly provided by D. Strickland [47]. They were cultured in Ham's F12K medium. All cells were cultured with 10% (v/v) heat inactivated (56°C, 30 min) fetal bovine serum (FBS) (Roche Molecular Biochemicals, Indianapolis, IN) and 50 international units/mL penicillin-streptomycin (Invitrogen). Cell death was monitored conveniently by uptake of the trypan blue dye due to plasma membrane permeability of dying and/or dead cells.

[2] = system: SW620; test: Cell growth / proliferation (cell number); assay type: cell-based, human; conditions: for Number of cells / % inhibition: counted seven days after seeding; for Number of cells: control 1,800,000; for % Growth inhibition After 3 days: SW620, N6 or N7 20 μM, viable cell number vs untreated control, mean of at least 2 independent experiments
Method: as §1

[3] = system: TIII; test: Cell death (trypan blue uptake); assay type: cell-based, murine; conditions: subconfluent, N6 or N7 20 μM, mean of at least 2 independent experiments
Method: as §1

[4] = system: T29; test: Cell death (trypan blue uptake); assay type: cell-based, murine; conditions: for % Cell death After 24 hours: T29, freshly passaged, N6 or N7 20 μM, mean of at least 2 independent experiments; for IC50: T29 cells, 0-20 μM, read-out: Cell death: IC50 24 hours post-passage
Method: as §1

[5] = system: HeLa; test: Cell death (trypan blue uptake); assay type: cell-based, human; conditions: subconfluent, N6 or N7 20 μM, mean of at least 2 independent experiments
Method: as §1

[6] = system: HL60; test: Cell death (trypan blue uptake); assay type: cell-based, human; conditions: HL60, freshly passaged, N6 or N7 20 μM, mean of at least 2 independent experiments
Method: as §1

[7] = system: LNCaP; test: Cell death (trypan blue uptake); assay type: cell-based, human; conditions: subconfluent, N6 or N7 20 μM, mean of at least 2 independent experiments
Method: as §1

[8] = system: MDA-MB 435; test: Cell death (trypan blue uptake); assay type: cell-based, human; conditions: MDA-MB 435, subconfluent, N6 or N7 20 μM, mean of at least 2 independent experiments
Method: as §1

[9] = system: RAJI; test: Cell death (trypan blue uptake); assay type: cell-based, human; conditions: freshly passaged, N6 or N7 20 μM, mean of at least 2 independent experiments
Method: as §1

[10] = system: T29; test: Cell growth / multiplication (viable cell number); assay type: cell-based, murine; conditions: for % Growth inhibition After 3 days: T29, N6 or N7 20 μM, viable cell number vs untreated control, mean of at least 2 independent experiments; for IC50: T29 cells, 0-20 μM, number of viable cells at 3 days post-treatment, read-out: Cell number: IC50 72 hours post-passage; for multiplication index of cells at day 3 compared to day 0: T29 seeded at 150,000 cells/ml, 10 μM (hexavalent), triplicate, control 17.5-fold
Method: as §1
Figure 7 HB-19 and related multivalent Nucant pseudopeptides induce cell death associated with internucleosomal DNA fragmentation. A. Inhibition of cell multiplication by HB-19 and related multivalent Nucant pseudopeptides. […] Cell cultures (in triplicate) were monitored for viable cell number daily for 3 days. The histograms show the mean number of cells/ml ± SD of triplicate samples. The multiplication index of cells at day 3 compared to day 0 (the day of seeding) is given at the top of histogram. At 3 days post passage of T29 cells, the cell multiplication index of cells is 17.5-fold compared to 8.9-, 7.2-, 2.2-, and 1.7-fold in the presence of treatment with HB-19, N3, N6, and N7, respectively. B. N7 inhibits T29 cell multiplication in a dose dependent manner. T29 cells seeded at 100,000/ml in 2 ml in the absence (0 μM) or presence of N7 at various concentrations 2.5, 5, 10 and 20 μM were cultured for 3 days and the number of viable cells was determined at day 1, 2, and 3 post-seeding. The ordinate gives the cell number/ml (the mean of 2 samples) in each culture at day 1, 2, and 3 post-seeding. C. Partial cleavage of surface/cytoplasmic nucleolin. T29 cells were cultured for 45 min with 0 (for control; lanes C), 2 and 10 μM of N6 before preparation of cytoplasmic (that contains both surface and cytoplasmic nucleolin) and nuclear extract and analysis by immunoblotting using rabbit polyclonal antibodies that are directed against the first 26 (panel anti-Nt Ab) and the last 16 amino acids (panel anti-Ct Ab) of human nucleolin, respectively. The nuclear extracts were analyzed by immunoblotting using anti-Nt Ab (Methods). […]

[11] = system: HeLa; test: Cell growth (viable cell number); assay type: cell-based, human; conditions: N6 or N7 20 μM, viable cell number vs untreated control, mean of at least 2 independent experiments
Method: as §1

[12] = system: HL60; test: Cell growth (viable cell number); assay type: cell-based, human; conditions: N6 or N7 20 μM, viable cell number vs untreated control, mean of at least 2 independent experiments
Method: as §1

[13] = system: Jurkat; test: Cell growth (viable cell number); assay type: cell-based, human; conditions: N6 or N7 20 μM, viable cell number vs untreated control, mean of at least 2 independent experiments
Method: as §1

[14] = system: HuT 78; test: Cell growth (viable cell number); assay type: cell-based, human; conditions: N6 or N7 20 μM, viable cell number vs untreated control, mean of at least 2 independent experiments
Method: as §1

[15] = system: LNCaP; test: Cell growth (viable cell number); assay type: cell-based, human; conditions: N6 or N7 20 μM, viable cell number vs untreated control, mean of at least 2 independent experiments
Method: as §1

[16] = system: MDA-MB 435; test: Cell growth (viable cell number); assay type: cell-based, human; conditions: N6 or N7 20 μM, viable cell number vs untreated control, mean of at least 2 independent experiments
Method: as §1

[17] = system: RAJI; test: Cell growth (viable cell number); assay type: cell-based, human; conditions: N6 or N7 20 μM, viable cell number vs untreated control, mean of at least 2 independent experiments
Method: as §1

[18] = system: MDA-MB 231; test: Cell growth (viable cell number); assay type: cell-based, human; conditions: N6 or N7 20 μM, viable cell number vs untreated control, mean of at least 2 independent experiments
Method: as §1

Substance	% Growth inhibition After 3 days [1] [%]	% Growth inhibition After 3 days [2] [%]	% Cell death After 24 hours [3] [%]	% Cell death After 24 hours [4] [%]	IC50 [4] [µM]	% Cell death After 24 hours [5] [%]	% Cell death After 24 hours [6] [%]	% Cell death After 24 hours [7] [%]	% Cell death After 24 hours [8] [%]	% Cell death After 24 hours [9] [%]	% Growth inhibition After 3 days [10] [%]	IC50 [10] [µM]	multiplication index of cells at day 3 compared to day 0 [10] [fold]	% Growth inhibition After 3 days [11] [%]	% Growth inhibition After 3 days [12] [%]	% Growth inhibition After 3 days [13] [%]	% Growth inhibition After 3 days [14] [%]	% Growth inhibition After 3 days [15] [%]	% Growth inhibition After 3 days [16] [%]	% Growth inhibition After 3 days [17] [%]	also measured
Ac-KAKPGKAKPGKAKPG-NH2 [Nucant N7, Presents hexavalently the pseudo-tripeptide Lysψ(CH2N)-Pro-Arg coupled to a similar template as in HB-19]	25	45	< 5	45	20	< 5	35	< 5	< 5	42	85	8	1.7	46	65	80	62	88	58	75	Number of cells ([1]; SW480, 10 μM added once 5 hours after seeding (20,000 cells/ml, 2 ml)): 1,200,000; % inhibition ([1]; SW480, 10 μM added once 5 hours after seeding): 20%; Number of cells ([1]; SW480, 20 μM added once 5 hours after seeding (20,000 cells/ml, 2 ml)): 900,000; % inhibition ([1]; SW480, 20 μM added once 5 hours after seeding): 40%; Number of cells ([2]; SW620, 10 μM added once 5 hours after seeding (20,000 cells/ml, 2 ml)): 1,000,000; % inhibition ([2]; SW620, 10 μM added once 5 hours after seeding): 44%; Number of cells ([2]; SW620, 20 μM added once 5 hours after seeding (20,000 cells/ml, 2 ml)): 700,000; % inhibition ([2]; SW620, 20 μM added once 5 hours after seeding): 61%; % Growth inhibition After 3 days [18]: 92%
Ac-Lys-Aib-Gly-Lys-Aib-Gly-Lys-Aib-Gly-Lys-Aib-Gly-Lys-Aib-Gly-Lys-Aib-Gly-CONH2 [Nucant N6, Presents hexavalently the pseudo-tripeptide Lysψ(CH2N)-Pro-Arg coupled to the polypeptide template containing Aib]	25	45	< 5	45	20	< 5	35	< 5	< 5	42	85	8	2.2	46	65	80	62	88	58	75	% Growth inhibition After 3 days [18]: 92%
